Source: paper PMC11643494, “Structure–Activity Relationship Studies in a Series of 2-Aryloxy-N-(pyrimidin-5-yl)acetamide Inhibitors of SLACK Potassium Channels” (Molecules, 2024)

How the values were obtained:
[1] = biological target: T1, KV7.2 (Homo sapiens, UniProt O43526); test: Tl+-flux assay in HEK-293 cells, KV7.2; assay type: cell-based; conditions: HEK293; 10 µM test compound; relative to control XE991; read-out: Percent Inhibition ± SEM, KV7.2
T1 construct: expressed in transfected cells; host or cells: HEK293
From the text: (§1) Having executed our plan to prepare analogs across the identified regions of the chemotype (Figure 2), we identified two analogs for further profiling and evaluation. […] Desiring to add a second compound with some measure of structural differences, we also chose another submicromolar SLACK inhibitor 66 (VU0936154). Whereas 40 contains an ether linker and a halogenated phenyl group in the eastern region, […] contains an N-methyl linker and a phenyl group with a more polar cyano substituent. We first screened these analogs at 10 µM versus our in-house panel of ion channel targets using Tl^+-flux assays in HEK-293 cells expressing the human target of interest. […] Included in this set are Slo family members SLICK and two isoforms of Maxi-K, as well as several different K^+, Na^+, and Ca^2+ channels (Table 6). […] Of note was the excellent selectivity versus the broader panel of targets for both compounds, including versus the hERG channel.
(§2) Stably transfected monoclonal HEK293 cell lines expressing SLICK, Maxi-K α1/β3, Maxi-K α1/β4, CaV3.2, GIRK 1/2, KV2.1, KV7.2, NaV1.7, and TASK-1 were generated as previously described. […]
(§3) The Tl^+ flux assays were conducted as previously described, with modifications optimized for individual cell lines as described below. […] Cell plates were then loaded onto a Panoptic kinetic imaging plate reader (WaveFront Biosciences, Franklin, TN, USA). […]

[2] = biological target: T2, TASK-1 (Homo sapiens, UniProt O14649); test: Tl+-flux assay in HEK-293 cells, TASK-1; assay type: cell-based; conditions: HEK293; 10 µM test compound; relative to control bepridil; read-out: Percent Inhibition ± SEM, TASK-1
T2 construct: expressed in transfected cells; host or cells: HEK293
From the text: as §1, §2, §3

T2 sequence (O14649 whole entry): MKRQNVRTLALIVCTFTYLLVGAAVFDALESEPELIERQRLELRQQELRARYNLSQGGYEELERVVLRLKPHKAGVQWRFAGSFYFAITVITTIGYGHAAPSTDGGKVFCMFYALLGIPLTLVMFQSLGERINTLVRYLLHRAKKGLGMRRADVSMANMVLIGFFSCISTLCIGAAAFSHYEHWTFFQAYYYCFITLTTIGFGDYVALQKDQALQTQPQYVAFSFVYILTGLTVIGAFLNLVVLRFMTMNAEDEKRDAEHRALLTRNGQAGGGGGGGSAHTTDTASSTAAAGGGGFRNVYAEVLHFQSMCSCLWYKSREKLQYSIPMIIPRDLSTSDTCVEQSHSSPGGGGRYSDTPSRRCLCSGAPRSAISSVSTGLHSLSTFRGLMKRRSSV

SMILES | inhibition at 10 µM [1] | inhibition at 10 µM [2]
CC(C)(Oc1ccc(Cl)cc1)C(=O)Nc1cnc(Oc2c(F)cccc2F)nc1 [Analog 40] | 1.3 ± 1% | 24 ± 3.7%
CN(c1ccc(C#N)cc1)c1ncc(NC(=O)C(C)(C)Oc2ccc(Cl)cc2)cn1 [Analog 66] | 1.6 ± 0.94% | 18 ± 2%
